Test results from the NIST ThermoML archive (doi:10.1016/j.fluid.2018.10.006).
“And” between values parts separate entries of the source, which are not always exact repeats. Equal values may be shown once.

Conditions: 508.17 K, Fluid (supercritical or subcritical phases), Coaxial cylinder method

CCCCCC [hexane]
Conditions | thermal conductivity
2949 kPa | 0.0646 W/m/K
2953 kPa | 0.06509 W/m/K
2956 kPa | 0.06509 W/m/K
2963 kPa | 0.06603 W/m/K
2966 kPa | 0.06628 W/m/K
2970 kPa | 0.06681 W/m/K
2974 kPa | 0.06734 W/m/K
2979 kPa | 0.06826 W/m/K
2982 kPa | 0.0687 W/m/K
2990 kPa | 0.07041 W/m/K
2991 kPa | 0.0707 W/m/K
2995 kPa | 0.07129 W/m/K
2998 kPa | 0.07219 W/m/K
3002 kPa | 0.07324 W/m/K
3007 kPa | 0.07436 W/m/K
3009 kPa | 0.07488 W/m/K
3013 kPa | 0.0758 W/m/K
3015 kPa | 0.07648 W/m/K
3017 kPa | 0.07703 W/m/K
3021 kPa | 0.07822 W/m/K
3022 kPa | 0.07848 W/m/K
3024 kPa | 0.0792 W/m/K
3026 kPa | 0.07994 W/m/K
3029 kPa | 0.08069 W/m/K
3031 kPa | 0.08185 W/m/K
3033 kPa | 0.08287 W/m/K
3034 kPa | 0.08344 W/m/K
3036 kPa | 0.08467 W/m/K
3037 kPa | 0.08467 W/m/K
3038 kPa | 0.08604 W/m/K
3039 kPa | 0.08566 W/m/K
3040 kPa | 0.08735 W/m/K
3041 kPa | 0.08647 W/m/K and 0.08824 W/m/K
3042 kPa | 0.09103 W/m/K
3043 kPa | 0.09201 W/m/K
3045 kPa | 0.09401 W/m/K
3046 kPa | 0.09504 W/m/K
3047 kPa | 0.0961 W/m/K
3048 kPa | 0.09828 W/m/K
3049 kPa | 0.09941 W/m/K
3050 kPa | 0.1017 W/m/K
3051 kPa | 0.1048 W/m/K
3052 kPa | 0.1081 W/m/K
3053 kPa | 0.1119 W/m/K
3054 kPa | 0.1168 W/m/K
3055 kPa | 0.1226 W/m/K
3056 kPa | 0.1319 W/m/K
3057 kPa | 0.1487 W/m/K
3058 kPa | 0.1625 W/m/K
3059 kPa | 0.1438 W/m/K
3060 kPa | 0.1319 W/m/K
3061 kPa | 0.1231 W/m/K
3062 kPa | 0.1168 W/m/K
3063 kPa | 0.1123 W/m/K
3064 kPa | 0.1088 W/m/K
3065 kPa | 0.106 W/m/K
3066 kPa | 0.1039 W/m/K
3067 kPa | 0.1024 W/m/K
3068 kPa | 0.1006 W/m/K
3069 kPa | 0.09945 W/m/K
3070 kPa | 0.09832 W/m/K
3071 kPa | 0.09743 W/m/K
3073 kPa | 0.09613 W/m/K
3074 kPa | 0.09508 W/m/K
3075 kPa | 0.09456 W/m/K
3076 kPa | 0.09404 W/m/K
3077 kPa | 0.09323 W/m/K
3078 kPa | 0.09287 W/m/K
3079 kPa | 0.09237 W/m/K
3080 kPa | 0.09171 W/m/K
3081 kPa | 0.09127 W/m/K
3082 kPa | 0.09079 W/m/K
3083 kPa | 0.09032 W/m/K
3084 kPa | 0.08985 W/m/K
3085 kPa | 0.08955 W/m/K
3086 kPa | 0.0889 W/m/K
3087 kPa | 0.08845 W/m/K
3088 kPa | 0.088 W/m/K
3089 kPa | 0.08755 W/m/K
3090 kPa | 0.08755 W/m/K
3091 kPa | 0.08711 W/m/K
3092 kPa | 0.08667 W/m/K
